Laboratory results: article PMC11106707, “Design of potent tyrosinase inhibiting N-arylated-4-yl-benzamides bearing 2-aminothiazole-triazole bi-heterocycles: mechanistic insight through enzyme inhibition, kinetics and computational studies” (RSC Advances, 2024)

Biological target: tyrosinase
Test: not given
Conditions: tyrosinase inhibitor reported previously, Fig. 1; cited from earlier work

Question: For `O=C(/C=C/c1ccc(O)cc1)NC(=O)c1ccccc1` [N-acryloyl benzamide Derivatives], which IC50 is on record?
Answer: The IC50 was 19.2 ± 1.14 µM.

Question: For `COc1cc(Cl)ccc1-n1c(SCC(=O)Nc2ccc(Br)cc2)nnc1-c1ccccc1`, which IC50 is on record?
Answer: The IC50 was 0.0048 ± 0.0016 µM.

Question: For `Nn1c(SCc2cc(=O)c(O)co2)nnc1-c1ccccc1Cl`, which IC50 is on record?
Answer: The IC50 was 5.35 ± 0.15 µM.

Question: Which IC50 does the source give for `Cc1ccccc1NC(=O)CSc1nnc(Cc2csc(N)n2)n1-c1ccccc1` here?
Answer: Its IC50 is 0.0156 ± 0.0021 µM.

Question: With `Clc1ccc(-c2csc(N/N=C/c3ccc[nH]3)n2)cc1` as the molecule, how does the IC50 read?
Answer: The IC50 was 7.48 ± 0.19 µM.

Question: Which IC50 does the source give for `COc1cccc(C(=O)NN2C(=O)c3ccccc3NC2c2ccc(Br)cc2)c1` (centres unmarked) [Quinazolinone Benzamide Derivatives] here?
Answer: Its IC50 is 1.61 ± 0.324 µM.

Biological target: T1, mushroom tyrosinase (Agaricus bisporus, UniProt C7FF04)
T1 construct: purchased Sigma Chemical, USA
Test: Kinetic analysis of the inhibition of tyrosinase (Lineweaver–Burk / secondary plots)
Assay type: biochemical
Conditions: Lineweaver–Burk plots; Vmax decreased, Km remained the same
Experimental: To understand the inhibitory mechanism of synthetic compounds on the tyrosinase inhibition, kinetic study was performed. […] The kinetic results of the enzyme by the Lineweaver–Burk plot of 1/V versus 1/[S] in the presence of different inhibitor concentrations furnished a series of straight lines (Fig. 13A).
Fig. 13 Lineweaver–Burk plots for inhibition of tyrosinase in the presence of compound 9c. (A) Concentrations of 9c were 0.00, 0.004, 0.008, 0.016 and 0.032 μM, respectively. Substrate L-DOPA concentrations were 0.125, 0.25, 0.5, 1 and 2 mM, respectively. (B) The insets represent the plot of the slope versus inhibitor 9c concentrations to determine inhibition constant. The lines were drawn using linear least squares fit.
A series of experiments were performed to determine the inhibition kinetics of 9c by following the already reported methods.[41,42] The inhibitor concentrations for 9c were 0.00, 0.004, 0.008, 0.016 and 0.032 μM. Substrate L-DOPA concentrations were between 0.125 and 2 mM in all kinetic studies. Pre-incubation and measurement time was the same as discussed in the mushroom tyrosinase inhibition assay protocol. Maximal initial velocity was determined from the initial linear portion of absorbance up to five minutes after addition of enzyme at a 30 s interval. […]

T1 sequence (C7FF04 1-392): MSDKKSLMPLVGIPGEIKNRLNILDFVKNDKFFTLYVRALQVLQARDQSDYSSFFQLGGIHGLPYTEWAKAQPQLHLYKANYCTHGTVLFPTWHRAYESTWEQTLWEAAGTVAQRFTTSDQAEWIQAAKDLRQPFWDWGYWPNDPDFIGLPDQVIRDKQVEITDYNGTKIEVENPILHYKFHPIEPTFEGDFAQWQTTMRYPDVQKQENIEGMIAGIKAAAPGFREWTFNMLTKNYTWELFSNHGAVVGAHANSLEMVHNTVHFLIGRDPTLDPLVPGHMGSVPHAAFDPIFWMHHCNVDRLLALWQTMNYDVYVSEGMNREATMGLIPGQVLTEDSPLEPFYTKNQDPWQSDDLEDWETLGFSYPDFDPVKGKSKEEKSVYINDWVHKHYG

Question: For `Cc1cccc(C)c1NC(=O)c1ccc(CSc2nnc(Cc3csc(N)n3)n2-c2ccccc2)cc1` [9c, 4-[({5-[(2-Amino-1,3-thiazol-4-yl)methyl]-4-phenyl-4H-1,2,4-triazol-3-yl}sulfanyl)methyl]-N-(2,6-dimethylphenyl)benzamide], which Inhibition type is on record?
Answer: The Inhibition type was “non-competitively”.

Same assay, conditions: calculated from Dixon plots; substrate L-DOPA 0.125–2 mM; read-out: Inhibition constant Ki

Question: For `Cc1cccc(C)c1NC(=O)c1ccc(CSc2nnc(Cc3csc(N)n3)n2-c2ccccc2)cc1` [9c, 4-[({5-[(2-Amino-1,3-thiazol-4-yl)methyl]-4-phenyl-4H-1,2,4-triazol-3-yl}sulfanyl)methyl]-N-(2,6-dimethylphenyl)benzamide], which Ki is on record?
Answer: The Ki was 0.016 µM.

Tested on: RBCs (erythrocytes)
Test: Hemolytic activity
Assay type: cell-based
Conditions: bovine, erythrocyte (RBC) suspension, pH 7.4, 20 μL compound solution (10 mg mL^−1) in 180 μL RBCs suspension, room temperature, read-out: Hemolysis (%) (mean ± SEM)
Experimental: Bovine blood sample was collected in EDTA that was diluted with saline (0.9% NaCl), and centrifuge at 1000 × g for 10 min. The erythrocytes separated diluted in phosphate buffer saline of pH 7.4 and a suspension was made. Add 20 μL of synthetic compounds solution (10 mg mL^−1) in 180 μL of RBCs suspension and incubate for 30 min at room temperature. PBS was used as negative control and Triton 100-X was taken as positive control.[43,44] The percentage of hemolysis was taken as by using formula: [drawing 24]

Question: With `CCc1ccccc1NC(=O)c1ccc(CSc2nnc(Cc3csc(N)n3)n2-c2ccccc2)cc1` [9i, 4-[({5-[(2-Amino-1,3-thiazol-4-yl)methyl]-4-phenyl-4H-1,2,4-triazol-3-yl}sulfanyl)methyl]-N-(2-ethylphenyl)benzamide] as the molecule, how does the hemolysis at 30 min, 1 mg/mL read?
Answer: Its hemolysis at 30 min, 1 mg/mL is 9.41 ± 0.05%.

Question: With `Cc1ccc(NC(=O)c2ccc(CSc3nnc(Cc4csc(N)n4)n3-c3ccccc3)cc2)cc1C` [9d, 4-[({5-[(2-Amino-1,3-thiazol-4-yl)methyl]-4-phenyl-4H-1,2,4-triazol-3-yl}sulfanyl)methyl]-N-(3,4-dimethylphenyl)benzamide] as the molecule, how does the hemolysis at 30 min, 1 mg/mL read?
Answer: The hemolysis at 30 min, 1 mg/mL was 8.82 ± 0.04%.

Question: For `Cc1ccccc1NC(=O)c1ccc(CSc2nnc(Cc3csc(N)n3)n2-c2ccccc2)cc1` [9f, 4-[({5-[(2-Amino-1,3-thiazol-4-yl)methyl]-4-phenyl-4H-1,2,4-triazol-3-yl}sulfanyl)methyl]-N-(2-methylphenyl)benzamide], which hemolysis at 30 min, 1 mg/mL is on record?
Answer: The hemolysis at 30 min, 1 mg/mL was 12.94 ± 0.03%.

Question: With `Cc1cccc(C)c1NC(=O)c1ccc(CSc2nnc(Cc3csc(N)n3)n2-c2ccccc2)cc1` [9c, 4-[({5-[(2-Amino-1,3-thiazol-4-yl)methyl]-4-phenyl-4H-1,2,4-triazol-3-yl}sulfanyl)methyl]-N-(2,6-dimethylphenyl)benzamide] as the molecule, how does the hemolysis at 30 min, 1 mg/mL read?
Answer: The hemolysis at 30 min, 1 mg/mL was 9.41 ± 0.02%.

Question: Which hemolysis at 30 min, 1 mg/mL does the source give for `CCOc1cccc(NC(=O)c2ccc(CSc3nnc(Cc4csc(N)n4)n3-c3ccccc3)cc2)c1` [9k, 4-[({5-[(2-Amino-1,3-thiazol-4-yl)methyl]-4-phenyl-4H-1,2,4-triazol-3-yl}sulfanyl)methyl]-N-(3-ethoxyphenyl)benzamide] here?
Answer: Its hemolysis at 30 min, 1 mg/mL is 10.35 ± 0.03%.

Question: Which hemolysis at 30 min, 1 mg/mL does the source give for `Cc1ccc(NC(=O)c2ccc(CSc3nnc(Cc4csc(N)n4)n3-c3ccccc3)cc2)cc1` [9h, 4-[({5-[(2-Amino-1,3-thiazol-4-yl)methyl]-4-phenyl-4H-1,2,4-triazol-3-yl}sulfanyl)methyl]-N-(4-dimethylphenyl)benzamide] here?
Answer: Its hemolysis at 30 min, 1 mg/mL is 2.64 ± 0.04%.

Question: Which hemolysis at 30 min, 1 mg/mL does the source give for `CCc1ccc(NC(=O)c2ccc(CSc3nnc(Cc4csc(N)n4)n3-c3ccccc3)cc2)cc1` [9j, 4-[({5-[(2-Amino-1,3-thiazol-4-yl)methyl]-4-phenyl-4H-1,2,4-triazol-3-yl}sulfanyl)methyl]-N-(4-ethylphenyl)benzamide] here?
Answer: The hemolysis at 30 min, 1 mg/mL was 8.52 ± 0.05%.

Question: With `Cc1ccc(NC(=O)c2ccc(CSc3nnc(Cc4csc(N)n4)n3-c3ccccc3)cc2)c(C)c1` [9a, 4-[({5-[(2-Amino-1,3-thiazol-4-yl)methyl]-4-phenyl-4H-1,2,4-triazol-3-yl}sulfanyl)methyl]-N-(2,4-dimethylphenyl)benzamide] as the molecule, how does the hemolysis at 30 min, 1 mg/mL read?
Answer: The hemolysis at 30 min, 1 mg/mL was 6.47 ± 0.02%.

Question: For `Cc1ccc(C)c(NC(=O)c2ccc(CSc3nnc(Cc4csc(N)n4)n3-c3ccccc3)cc2)c1` [9b, 4-[({5-[(2-Amino-1,3-thiazol-4-yl)methyl]-4-phenyl-4H-1,2,4-triazol-3-yl}sulfanyl)methyl]-N-(2,5-dimethylphenyl)benzamide], which hemolysis at 30 min, 1 mg/mL is on record?
Answer: Its hemolysis at 30 min, 1 mg/mL is 11.76 ± 0.03%.

Question: For `Cc1cc(C)cc(NC(=O)c2ccc(CSc3nnc(Cc4csc(N)n4)n3-c3ccccc3)cc2)c1` [9e, 4-[({5-[(2-Amino-1,3-thiazol-4-yl)methyl]-4-phenyl-4H-1,2,4-triazol-3-yl}sulfanyl)methyl]-N-(3,5-dimethylphenyl)benzamide], which hemolysis at 30 min, 1 mg/mL is on record?
Answer: The hemolysis at 30 min, 1 mg/mL was 6.47 ± 0.02%.

Question: Which hemolysis at 30 min, 1 mg/mL does the source give for `CC(C)(C)CC(C)(C)c1ccc(OCCO)cc1` [Triton X, reference compound] here?
Answer: The hemolysis at 30 min, 1 mg/mL was 94.11 ± 0.01%.

Question: Which hemolysis at 30 min, 1 mg/mL does the source give for `Cc1cccc(NC(=O)c2ccc(CSc3nnc(Cc4csc(N)n4)n3-c3ccccc3)cc2)c1` [9g, 4-[({5-[(2-Amino-1,3-thiazol-4-yl)methyl]-4-phenyl-4H-1,2,4-triazol-3-yl}sulfanyl)methyl]-N-(3-methylphenyl)benzamide] here?
Answer: The hemolysis at 30 min, 1 mg/mL was 6.52 ± 0.02%.
